According to PMC3368272, “The host-seeking inhibitory peptide, Aea-HP-1, is made in the male accessory gland and transferred to the female during copulation” (Peptides, 2012):
Square brackets hold non-standard residues; d marks the D form. Peptide text beside a SMILES is read from it. Hyp = O=C(O)[C@@H]1C[C@@H](O)CN1; pGlu = O=C1CC[C@@H](C(=O)O)N1

Experiments:
[1] = mosquito hemolymph, after 30 min; cited from earlier work
Excerpt: (§1) Aea-HP-1 has been tested for myogenic and behavior modifying activity in A. aegypti.

non-öogenic females = conditions: cited from earlier work
Excerpt: as §1

[2] = tested on: isolated oviduct and hindgut of female mosquitoes; conditions: female A. aegypti tissues; cited from earlier work
Excerpt: as §1

[3] = parameters: species or system Aedes aegypti; conditions: in vivo
Method: Tissues were dissected from adult mosquitoes in phosphate buffered saline (PBS, MP Biomedicals, Cambridge, UK) and collected into acidified methanol (86%, v/v, aqueous methanol and 5% v/v glacial acetic acid). MAGs and male seminal vesicles (SVs) (5 pairs per 100 μl) were typically prepared for analysis by infusing whole tissues in acidified methanol for 30 min, then centrifuging for 10 min at 13,000 rpm in a bench-top microcentrifuge, retaining the supernatant. Homogenization was avoided to provide a cleaner sample for analysis. […]
Mosquito tissues were analyzed for Aea-HP-1 by subjecting either acidified methanol extracts or intact tissues to MALDI/TOF-MS analysis. […]
MALDI/TOF-MS was used to analyze methanol extracts for the presence of Aea-HP-1 in the reproductive tract (uterus, spermathecae, bursa copulatrix, oviduct, but not the ovary) of individual virgin and post-mated females obtained by introducing a single female into a cage of 50 males until mating was observed (<5 min). […] In contrast, the molecular ions for Aea-HP-1 (m/z, 1227.9) and Aea-HP-3 (m/z, 1211.9) were detected in methanol extracts of tissues from nine out of thirteen post-copulated females. Extracts were also analyzed quantitatively by ELISA using synthetic Aea-HP-1 as a standard and the results were compared to the amount of material found in extracts of MAGs dissected from virgin males. […]

[4] = target: T1, D. melanogaster sex peptide receptor (SPR) (Drosophila melanogaster, UniProt Q8SWR3); assay: Ligand-mediated receptor activation, CHO-K1 cells expressing aequorin; assay type: cell-based; conditions: D. melanogaster SPR in CHO cells with aequorin and Gαqi; up to 10 μM; n = 4
T1 construct: expressed in transfected cells; host or cells: CHO-K1 cells co-expressing aequorin and chimaeric G-protein Gαqi
T1 sequence (Q8SWR3 1-435): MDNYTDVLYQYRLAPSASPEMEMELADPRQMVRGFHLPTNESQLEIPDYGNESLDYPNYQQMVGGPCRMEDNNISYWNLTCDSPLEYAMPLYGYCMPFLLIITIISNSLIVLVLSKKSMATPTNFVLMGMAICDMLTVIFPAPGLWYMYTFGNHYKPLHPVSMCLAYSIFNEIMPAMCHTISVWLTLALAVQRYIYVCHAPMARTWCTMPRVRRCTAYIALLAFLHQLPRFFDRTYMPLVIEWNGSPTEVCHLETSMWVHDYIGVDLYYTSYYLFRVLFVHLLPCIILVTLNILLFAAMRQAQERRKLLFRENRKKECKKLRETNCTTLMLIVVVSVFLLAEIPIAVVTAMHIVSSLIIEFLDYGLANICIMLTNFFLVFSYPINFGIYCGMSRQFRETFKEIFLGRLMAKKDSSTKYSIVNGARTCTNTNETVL
Method: (§2) Ligand-mediated receptor activation was measured using an established expression system employing CHO-K1 cells expressing the Ca^2+ reporter aequorin [42]. The construction of the expression constructs for D. melanogaster sex peptide receptor (SPR) and A. aegypti SPR and the measurement of the luminescent signals have been reported previously.
(§3) Fig. 6 Aea-HP-1 is not an active agonist for SPRs from D. melanogaster (A) and A. aegypti (B). Luminescent responses of CHO cells expressing SPR, aequorin and a chimaeric G-protein, Gαqi, and treated with varying concentrations of Aea-HP-1 and SP. Each data point is mean ± s.d. (n = 4).

[5] = tested on: virgin A. aegypti females; assay: Mating rejection after injection into the hemocoel of virgin females; assay type: in vivo, Aedes aegypti; conditions: 0.1–1 μg injected into the hemocoel of virgin A. aegypti females; data not presented
Excerpt: Transplantation of MAGs, or injection of gland extracts, into female A. aegypti can elicit a variety of post-mating responses including refractoriness to re-mating and inhibition of host-seeking and biting behavior [13]. […] This failure might be due to lack of accessibility and the known rapid catabolism of Aea-HP-1 in the hemolymph. D. melanogaster SP has wide-ranging effects on physiology and behavior some of which are mediated primarily through activation of the SP/MIP receptor that is expressed in sensory neurons of the uterus. The D. melanogaster SP receptor and its A. aegypti orthologue are also strongly activated by myoinhibitory peptides (MIPs), a family of peptides that are found in species from different insect orders and are considered to be the ancestral ligands for these receptors [[19,33,41]]. The receptors are also activated by unidentified ligands present in whole body extract of adult A. aegypti. Although Aea-HP-1 has no obvious structural similarity to either SP or MIP, the promiscuity of the SP/MIP receptor led us to consider the possibility that the head peptide might also be an agonist of the MIP receptor.

A. aegypti SPR = assay: Ligand-mediated receptor activation, CHO-K1 cells expressing aequorin; assay type: cell-based, Aedes aegypti; conditions: A. aegypti SPR in CHO cells with aequorin and Gαqi; up to 10 μM; n = 4
Method: as §2, §3

[6] = tested on: virgin D. melanogaster females; assay: Post-mating response (receptivity) after injection into virgin females; assay type: in vivo, Drosophila melanogaster; conditions: injected into the hemocoel of virgin D. melanogaster females; receptivity assayed 5 h after injection with naive Canton-S males
Method: Injections of either Aea-HP-1 or SP into the abdomen of virgin D. melanogaster females were performed as described previously. After injection, females were transferred to individual food vials and were tested after 5 h for receptivity with a naive Canton S male.
Receptivity of virgin females assayed 5 h after injection with either synthetic peptides (Aea-HP-1 or SP) or Ringer's solution alone. Wild type W1118 females were injected and assayed with naïve Canton-S males. Numbers in parenthesis indicate numbers of animal assayed. n.s., p > 0.05; ***p < 0.0001, one-way ANOVA (Tukey post-test) compared with Ringer treatment.

## CC(C)C[C@H](NC(=O)[C@H](CO)NC(=O)[C@@H]1C[C@@H](O)CN1C(=O)[C@@H]1CCCN1C(=O)[C@H](CCCNC(=N)N)NC(=O)[C@@H]1CCC(=O)N1)C(=O)N[C@@H](CCCCN)C(=O)N[C@H](C(=O)N[C@@H](CCCNC(=N)N)C(=O)N[C@@H](Cc1ccccc1)C(N)=O)[C@@H](C)O [Aea-HP-1, pERPhPSLKTRFamide] ([pGlu]RP[Hyp]SLKTRF-NH2)
[1]
  peptide remaining in the circulation: around 17%
non-öogenic females; injected into female A. aegypti
  effect on host-seeking behavior: inhibiting host-seeking behavior
non-öogenic females; injected into non-öogenic female A. aegypti
  duration of reduction in host-seeking: up to 5 h
[2]
  stimulation of contractions of isolated oviduct and hindgut: did not stimulate contractions
[3]
  persistence in the female reproductive tract after copulation: less than 2 h
[4]
  activation of SP/MIP receptor (luminescent response): did not activate
[5]
  induction of mating rejection: not been able to show that Aea-HP-1 can induce mating rejection
A. aegypti SPR
  activation of SP/MIP receptor (luminescent response): did not activate
[6]
  rejection of male advances (post-mating response): did not elicit rejection of male advances
